From patent publication US5041567A, “Antibacterial monic acid derivatives” (Beecham Group plc, priority 1982, dated 1991)
≈ marks a conversion by molar mass, not a printed value. Read-outs that look alike come from different tables or passages of the source.

Key:
Strep. faecalis I = assay: MIC against human bacteria in vitro; format: cell-based; settings: Enterococcus faecalis; Strep. faecalis I; 5% chocolated horse blood agar, 18 hours; read-out: MIC
[1] = tested on: Corynebacterium pyogenes CY1; assay: MIC against veterinary bacteria in vitro; settings: CY1, 18 h
Procedure: (§1) The activity of the compounds of the Examples against various veterinarily important bacteria, was assayed in vitro using two-fold serial dilutions in Diagnostic Sensitivity Test Agar inoculated with 10^4 organisms.

Past. multocida PA2 = assay: MIC against veterinary bacteria in vitro; settings: Pasteurella multocida, PA2, 18 h
Procedure: as §1

Strep. agalactiae 2788-B = assay: MIC against human bacteria in vitro; format: cell-based; settings: Streptococcus agalactiae; Strep. agalactiae 2788-B; 5% chocolated horse blood agar, 18 hours; read-out: MIC
M. suipneumoniae TAM 6N = assay: MIC against mycoplasma in vitro; format: cell-based; settings: Mesomycoplasma hyopneumoniae, TAM6N, 144 h
Bord. bronchiseptica B08 = assay: MIC against veterinary bacteria in vitro; settings: Bordetella bronchiseptica, B08, 18 h
Procedure: as §1

M. suipneumoniae HK(2) = assay: MIC against mycoplasma in vitro; format: cell-based; settings: Mesomycoplasma hyopneumoniae, 144 h
M. dispar NCTC 10125 = assay: MIC against mycoplasma in vitro; format: cell-based; settings: 144 h
M. suipneumoniae UCD 1 = assay: MIC against mycoplasma in vitro; format: cell-based; settings: Mesomycoplasma hyopneumoniae, UCD1, 144 h
Staph. aureus Oxford [2] = assay: MIC against veterinary bacteria in vitro; settings: Staphylococcus aureus, 18 h
Procedure: as §1

K. aerogenes A = assay: MIC against human bacteria in vitro; format: cell-based; settings: Klebsiella aerogenes; K. aerogenes A; 5% chocolated horse blood agar, 18 hours; read-out: MIC
M. hyorhinis ATCC 23234 = assay: MIC against mycoplasma in vitro; format: cell-based; settings: Mesomycoplasma hyorhinis, ATCC23234, 144 h
M. bovis NCTC 10131 = assay: microbe, parasite or virus in culture; format: cell-based; settings: NCTC10131, 144 h
S. typhimurium S18 = assay: MIC against veterinary bacteria in vitro; settings: Salmonella enterica, TYPHIMURIUM, 18 h
Procedure: as §1

[3] = tested on: M. suipneumoniae J2206/183^b; assay: MIC against mycoplasma in vitro; format: cell-based; settings: Mesomycoplasma hyopneumoniae, 144 h
M. suipneumoniae JF 435 = assay: MIC against mycoplasma in vitro; format: cell-based; settings: Mesomycoplasma hyopneumoniae, JF435, 144 h
M. suipneumoniae MS 16 = assay: MIC against mycoplasma in vitro; format: cell-based; settings: Mesomycoplasma hyopneumoniae, MS16, 144 h
M. gallisepticum S6 = assay: MIC against mycoplasma in vitro; format: cell-based; settings: Mycoplasmoides gallisepticum
M. hyorhinis ATCC 25021 = assay: MIC against mycoplasma in vitro; format: cell-based; settings: Mesomycoplasma hyorhinis, ATCC25021, 144 h
M. suipneumoniae NB12 = assay: MIC against mycoplasma in vitro; format: cell-based; settings: Mesomycoplasma hyopneumoniae
[4] = tested on: M. suipneumoniae NCTC 10110; assay: MIC against mycoplasma in vitro; format: cell-based; settings: Mesomycoplasma hyopneumoniae, NCTC10110, 144 h
P. mirabilis 889 = assay: MIC against human bacteria in vitro; format: cell-based; settings: Proteus mirabilis; P. mirabilis 889; 5% chocolated horse blood agar, 18 hours; read-out: MIC
Sarcina lutea 8340 = assay: MIC against human bacteria in vitro; format: cell-based; settings: Micrococcus luteus; Sarcina lutea 8340; 5% chocolated horse blood agar, 18 hours; read-out: MIC
[5] = tested on: M. bovigenitalium ATCC 14173; assay: MIC against mycoplasma in vitro; format: cell-based; settings: 144 h
[6] = tested on: Staph. aureus 152 (pen. sens); assay: MIC against veterinary bacteria in vitro; settings: Staphylococcus aureus, 18 h
Procedure: as §1

[7] = tested on: Strep. suis (group D) SPS11; assay: MIC against veterinary bacteria in vitro; settings: Streptococcus suis, 18 h
Procedure: as §1

M. suipneumoniae Str. 11 = assay: MIC against mycoplasma in vitro; format: cell-based; settings: Mesomycoplasma hyopneumoniae
Staph. aureus Oxford [8] = assay: MIC against human bacteria in vitro; format: cell-based; settings: Staphylococcus aureus; Staph. aureus Oxford; 5% chocolated horse blood agar, 18 hours; read-out: MIC
[9] = tested on: Staph. aureus B4 (pen. resistant); assay: MIC against veterinary bacteria in vitro; settings: Staphylococcus aureus, 18 h
Procedure: as §1

[10] = tested on: Pasteurella multocida 1633; assay: MIC against human bacteria in vitro; format: cell-based; settings: Pasteurella multocida 1633; 5% chocolated horse blood agar, 18 hours; read-out: MIC
[11] = tested on: Erysipelothrix rhusiopathiae NCTC 8163; assay: MIC against veterinary bacteria in vitro; settings: Erysipelothrix rhusiopathiae, NCTC8163, 18 h
Procedure: as §1

Strep. dysgalactiae SPD1 = assay: MIC against veterinary bacteria in vitro; settings: Streptococcus dysgalactiae, SPD1, 18 h
Procedure: as §1

Staph. aureus W2827 = assay: MIC against human bacteria in vitro; format: cell-based; settings: Staphylococcus aureus; Staph. aureus W2827; 5% chocolated horse blood agar, 18 hours; read-out: MIC
[12] = tested on: M. suipneumoniae PW/C/210; assay: MIC against mycoplasma in vitro; format: cell-based; settings: Mesomycoplasma hyopneumoniae, 144 h
[13] = M. dispar NCTC 10125, 6 days, 37° C., read-out: MIC
[14] = M. suipneumoniae MS 16, 6 days, 37° C., read-out: MIC
[15] = M. hyorhinis ATCC 25021, 6 days, 37° C., read-out: MIC
[16] = 144 h, M. suipneumoniae Str. 11, 6 days, 37° C., read-out: MIC
[17] = M. suipneumoniae PW/C/210, 6 days, 37° C., read-out: MIC

| SMILES | MIC (Strep. faecalis I) [µg/mL] | MIC [1] [µg/mL] | MIC (Past. multocida PA2) [µg/mL] | MIC (Strep. agalactiae 2788-B) [µg/mL] | MIC (Bord. bronchiseptica B08) [µg/mL] | MIC (M. suipneumoniae UCD 1) [µg/mL] | MIC (Staph. aureus Oxford [2]) [µg/mL] | MIC (K. aerogenes A) [µg/mL] | MIC (M. bovis NCTC 10131) [µg/mL] | MIC (S. typhimurium S18) [µg/mL] | MIC (P. mirabilis 889) [µg/mL] | MIC (Sarcina lutea 8340) [µg/mL] | MIC [5] [µg/mL] | MIC [6] [µg/mL] | MIC [7] [µg/mL] | MIC (Staph. aureus Oxford [8]) [µg/mL] | MIC [9] [µg/mL] | MIC [10] [µg/mL] | MIC [11] [µg/mL] | MIC (Strep. dysgalactiae SPD1) [µg/mL] | also measured |
| --- | --- | --- | --- | --- | --- | --- | --- | --- | --- | --- | --- | --- | --- | --- | --- | --- | --- | --- | --- | --- | --- |
| C/C(=C\c1ncc(-c2ccc(C#N)cc2)o1)C[C@@H]1OC[C@H](C[C@@H]2O[C@H]2[C@@H](C)[C@H](C)O)[C@@H](O)[C@H]1O [Example 21, 5-p-Cyanophenyl-2-(1-normon-2-yl) oxazole A] | > 128 | > 80 | 0.625 (≈ 1.33 µM) | 4 (≈ 8.54 µM) | 40 (≈ 85.4 µM) | 0.25 (≈ 0.534 µM) | 2.5 (≈ 5.34 µM) | > 128 | 0.025 (≈ 0.0534 µM) | > 80 | > 128 | > 128 | 0.05 (≈ 0.107 µM) | 0.625 (≈ 1.33 µM) | 10 (≈ 21.3 µM) | 4 (≈ 8.54 µM) | 1.25 (≈ 2.67 µM) | 8 (≈ 17.1 µM) | 40 (≈ 85.4 µM) | 0.625 (≈ 1.33 µM) | MIC (M. suipneumoniae TAM 6N; M. suipneumoniae TAM 6N, 6 days, 37° C., read-out: MIC): 0.5 µg/mL (≈ 1.07 µM); MIC (M. suipneumoniae HK(2); M. suipneumoniae HK(2), 6 days, 37° C., read-out: MIC): 0.5 µg/mL (≈ 1.07 µM); MIC (M. dispar NCTC 10125): 0.1 µg/mL (≈ 0.213 µM); MIC (M. hyorhinis ATCC 23234): 0.25 µg/mL (≈ 0.534 µM); MIC ([3]; M. suipneumoniae J2206/183^b, 6 days, 37° C., read-out: MIC): 0.5 µg/mL (≈ 1.07 µM); MIC (M. suipneumoniae JF 435; M. suipneumoniae JF 435, 6 days, 37° C., read-out: MIC): 0.5 µg/mL (≈ 1.07 µM); MIC (M. suipneumoniae MS 16): 0.25 µg/mL (≈ 0.534 µM); MIC (M. gallisepticum S6; S6, 144 h): 0.25 µg/mL (≈ 0.534 µM); MIC (M. hyorhinis ATCC 25021): 0.25 µg/mL (≈ 0.534 µM); MIC (M. suipneumoniae NB12; NB12, 144 h): 0.25 µg/mL (≈ 0.534 µM); MIC ([4]; M. suipneumoniae NCTC 10110, 6 days, 37° C., read-out: MIC): 0.5 µg/mL (≈ 1.07 µM); MIC (M. suipneumoniae Str. 11; STR.11, 144 h): 0.25 µg/mL (≈ 0.534 µM); MIC (Staph. aureus W2827): 4 µg/mL (≈ 8.54 µM); MIC [12]: 0.25 µg/mL (≈ 0.534 µM) |
| CSc1cccc(-c2cnc(/C=C(\C)C[C@@H]3OC[C@H](C[C@@H]4O[C@H]4[C@@H](C)[C@H](C)O)[C@@H](O)[C@H]3O)o2)c1 [Example 22, 5-m-Methylthiophenyl-2-(1-normon-2-yl)oxazole A] | > 128 | > 80 | 10 (≈ 20.4 µM) | 16 (≈ 32.7 µM) | > 80 | 1 (≈ 2.04 µM) | 2.5 (≈ 5.11 µM) | > 128 | 0.05 (≈ 0.102 µM) | > 80 | > 128 | > 128 | 0.1 (≈ 0.204 µM) | 1.25 (≈ 2.55 µM) | 20 (≈ 40.8 µM) | 4 (≈ 8.17 µM) | 1.25 (≈ 2.55 µM) | 32 (≈ 65.4 µM) | 80 (≈ 163 µM) | 1.25 (≈ 2.55 µM) | MIC (M. suipneumoniae TAM 6N): 1 µg/mL (≈ 2.04 µM); MIC (M. suipneumoniae HK(2)): 1 µg/mL (≈ 2.04 µM); MIC (M. dispar NCTC 10125; [13]): 0.5 µg/mL (≈ 1.02 µM); MIC (M. hyorhinis ATCC 23234): 1 µg/mL (≈ 2.04 µM); MIC [3]: 1 µg/mL (≈ 2.04 µM); MIC (M. suipneumoniae JF 435): 1 µg/mL (≈ 2.04 µM); MIC (M. suipneumoniae MS 16; [14]): 0.5 µg/mL (≈ 1.02 µM); MIC (M. gallisepticum S6; 144 h, M. gallisepticum S6, 6 days, 37° C., read-out: MIC): 5 µg/mL (≈ 10.2 µM); MIC (M. hyorhinis ATCC 25021; [15]): 0.5 µg/mL (≈ 1.02 µM); MIC (M. suipneumoniae NB12; NB12, 144 h): 1 µg/mL (≈ 2.04 µM); MIC [4]: 1 µg/mL (≈ 2.04 µM); MIC (M. suipneumoniae Str. 11; [16]): 0.5 µg/mL (≈ 1.02 µM); MIC (Staph. aureus W2827): 16 µg/mL (≈ 32.7 µM); MIC [12, 17]: 0.5 µg/mL (≈ 1.02 µM) |
| C/C(=C\c1ncc(-c2cccc(S(C)(=O)=O)c2)o1)C[C@@H]1OC[C@H](C[C@@H]2O[C@H]2[C@@H](C)[C@H](C)O)[C@@H](O)[C@H]1O [Example 23, 5-m-Methylsulphonylphenyl-2-(1-normon-2-yl) oxazole A] | > 128 | > 80 | 2.5 (≈ 4.79 µM) | 2 (≈ 3.83 µM) | > 80 | 1 (≈ 1.92 µM) | 10 (≈ 19.2 µM) | > 64 | 0.025 (≈ 0.0479 µM) | > 80 | > 64 | > 128 | 0.1 (≈ 0.192 µM) | 2.5 (≈ 4.79 µM) | 10 (≈ 19.2 µM) | 4 (≈ 7.67 µM) | 5 (≈ 9.59 µM) | 2 (≈ 3.83 µM) | > 80 | 1.25 (≈ 2.4 µM) | MIC (M. suipneumoniae TAM 6N): 1 µg/mL (≈ 1.92 µM); MIC (M. suipneumoniae HK(2)): 1 µg/mL (≈ 1.92 µM); MIC (M. dispar NCTC 10125; [13]): 0.5 µg/mL (≈ 0.959 µM); MIC (M. hyorhinis ATCC 23234; M. hyorhinis ATCC 23234, 6 days, 37° C., read-out: MIC): 0.5 µg/mL (≈ 0.959 µM); MIC [3]: 1 µg/mL (≈ 1.92 µM); MIC (M. suipneumoniae JF 435): 1 µg/mL (≈ 1.92 µM); MIC (M. suipneumoniae MS 16; [14]): 0.5 µg/mL (≈ 0.959 µM); MIC (M. gallisepticum S6; S6, 144 h): 1 µg/mL (≈ 1.92 µM); MIC (M. hyorhinis ATCC 25021; [15]): 0.5 µg/mL (≈ 0.959 µM); MIC (M. suipneumoniae NB12; 144 h, M. suipneumoniae NB12, Friis broth, 0.9% agarose, 6 days, 37° C., read-out: MIC): 0.5 µg/mL (≈ 0.959 µM); MIC [4]: 1 µg/mL (≈ 1.92 µM); MIC (M. suipneumoniae Str. 11; [16]): 0.5 µg/mL (≈ 0.959 µM); MIC (Staph. aureus W2827): 16 µg/mL (≈ 30.7 µM); MIC [12, 17]: 0.5 µg/mL (≈ 0.959 µM) |
